Reference: patent US20120128807A1, “COMPOSITION FOR PREVENTING OR TREATING IRRITABLE BOWEL SYNDROME” (SK CHEMICALS CO., LTD., priority 2009, published 2012)

Tests used:
[1] = target: T1, neurokinin receptor (U-373MG glioma cell line) (Homo sapiens, UniProt P25103); assay: Neurokinin receptor inhibition: binding of fluorescent substance P to U-373MG cells; settings: 50 nM sample, 50nM SP
T1 construct: Cell line (U-373MG glioma cell line) over-expressing neurokinin receptor; host or cells: U-373MG glioma cell line
Protocol: Cell line (U-373MG glioma cell line) over-expressing neurokinin receptor was purchased from Korean Cell Line Bank. The cell line was incubated with 5% CO2 in a medium (90% of RPMI 1640, 10% of fetal bovine serum, 100 IU/ml of penicillin, 100 μg/ml of streptomycin, 2 mM of L-glutamine, and 1.0 mM of sodium pyruvate), and was sub-cultured every 6-8 days with 0.25% trypsin solution.
Cells were diluted to have various cell numbers, and were seeded onto a 24-well plate. After 48 hours, substance P (SP) connected with a probe was added in various concentrations. After some time for reaction, the concentration of fluorescence probe-containing SP (Oregon Green488 conjugate, Molecular Probes, Eugene, Oreg.) bound to the receptor was measured with a fluorophotometer according to the number of cells and the concentrations, through which the ideal condition was established [V J. Bennett et al., BMC Chem. Biol., 1:1, 2001]. Non-peptide antagonist, L-733060 (estimated affinity=0.8nM), which selectively binds to the receptor was used as a control [R. Bang et al., J. Pharmacol. Exp. Ther., 305, p 31-39, 2003].
50% Ethanol aqueous solution extract of Atractylodes japonica was solved in DMSO (the final concentration is within 0.1%) and diluted with distilled water. […] Then, cells were dissolved in 5% Triton X-100, and their fluorescence (Ex 485/Em 528) was measured with black, opaque 96-well plate. […]

neurokinin receptor = neurokinin receptor (Homo sapiens, UniProt P25103); settings: non-peptide antagonist which selectively binds to the receptor; cited from earlier work
Sequence of neurokinin receptor (P25103 whole entry): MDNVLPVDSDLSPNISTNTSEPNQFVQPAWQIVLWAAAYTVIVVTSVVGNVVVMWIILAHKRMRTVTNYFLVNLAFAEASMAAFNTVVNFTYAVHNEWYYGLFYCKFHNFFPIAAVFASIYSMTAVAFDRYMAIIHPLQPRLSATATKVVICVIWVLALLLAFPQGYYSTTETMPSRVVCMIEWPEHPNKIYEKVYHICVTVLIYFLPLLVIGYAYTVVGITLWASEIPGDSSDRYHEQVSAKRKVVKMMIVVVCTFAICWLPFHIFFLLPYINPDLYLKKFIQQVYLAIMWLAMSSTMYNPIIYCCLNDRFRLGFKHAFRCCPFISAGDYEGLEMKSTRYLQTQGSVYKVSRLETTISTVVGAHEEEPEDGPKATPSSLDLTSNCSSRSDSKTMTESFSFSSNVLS

T1 sequence (P25103 whole entry): as above

## FC(F)(F)c1cc(CO[C@H]2CCCN[C@H]2c2ccccc2)cc(C(F)(F)F)c1 [Extract L-733060, L-733060]
[1]
  Relative Inhibitory Activity (%): 72 ± 8 %
Neurokinin receptor
  estimated affinity: 0.8 nM
